Data published in patent US20080200454A1, “CARBON-LINKED TETRAHYDRO-PYRAZOLO-PYRIDINE MODULATORS OF CATHEPSIN S” (priority 2007, published 2008).
Read-outs that look alike come from different tables or passages of the source.

Molecular target: Recombinant human cathepsin S (CatS) (Homo sapiens, UniProt P25774)
Experiment: Recombinant human cathepsin S (CatS) inhibition assay, fluorogenic substrate Z-Valine-Valine-Arginine-AMC;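 note: Baculovirus-expressed CatS in pH 5.0 sodium acetate buffer with DTT and NaCl, fluorescence read each minute over 20 min, inhibition derived from rate slope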

Recombinant human cathepsin S (CatS), sequence (P25774 115-331): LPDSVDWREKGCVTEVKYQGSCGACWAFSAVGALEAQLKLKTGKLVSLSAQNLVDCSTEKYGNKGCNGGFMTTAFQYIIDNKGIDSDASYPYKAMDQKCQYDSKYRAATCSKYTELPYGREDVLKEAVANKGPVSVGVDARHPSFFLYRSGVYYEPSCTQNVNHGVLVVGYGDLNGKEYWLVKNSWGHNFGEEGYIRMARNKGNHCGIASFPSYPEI

Row | SMILES | IC50 (CatS IC50) | IC50
1 | CC(C)(C)C1CCN(CCCn2nc(-c3ccc(Cl)c(C#Cc4ccc5c(c4)CNCC5)c3)c3c2CCN(S(C)(=O)=O)C3)CC1 [Example 378, 7-({2-Chloro-5-[1-{3-[4-(1,1-dimethylethyl)piperidin-1-yl]propyl}-5-(methylsulfonyl)-4,5,6,7-tetrahydro-1H-pyrazolo[4,3-c]pyridin-3-yl]phenyl}ethynyl)-1,2,3,4-tetrahydroisoquinoline] | 80 nM | –
2 | CS(=O)(=O)N1CCc2c(c(-c3ccc(Cl)c(C#Cc4cccc(CNCc5ccccc5)c4)c3)nn2CCCN2CCOCC2)C1 [Example 379, 1-[3-({2-Chloro-5-[5-(methylsulfonyl)-1-(3-morpholin-4-ylpropyl)-4,5,6,7-tetrahydro-1H-pyrazolo[4,3-c]pyridin-3-yl]phenyl}ethynyl)phenyl]-N-(phenylmethyl)methanamine] | – | 290 nM
3 | CS(=O)(=O)N1CCc2c(c(-c3ccc(Cl)c(C#Cc4ccc(CNCc5ccc(Cl)cc5)cc4)c3)nn2CCCN2CCN(C(=O)c3ccccc3)CC2)C1 [Example 380, 1-[4-({2-Chloro-5-[5-(methylsulfonyl)-1-{3-[4-(phenylcarbonyl)piperazin-1-yl]propyl}-4,5,6,7-tetrahydro-1H-pyrazolo[4,3-c]pyridin-3-yl]phenyl}ethynyl)phenyl]-N-[(4-chlorophenyl)methyl]methanamine] | 60 nM | –
4 | CS(=O)(=O)N1CCc2c(c(-c3ccc(Cl)c(C#Cc4ccc5c(c4)CNCC5)c3)nn2CCCN2CCCCC2)C1 [Example 381, 7-({2-Chloro-5-[5-(methylsulfonyl)-1-(3-piperidin-1-ylpropyl)-4,5,6,7-tetrahydro-1H-pyrazolo[4,3-c]pyridin-3-yl]phenyl}ethynyl)-1,2,3,4-tetrahydroisoquinoline] | 100 nM | –
5 | CS(=O)(=O)N1CCc2c(c(-c3ccc(Cl)c(C#Cc4ccc(CNCc5ccc(Cl)cc5)cc4)c3)nn2CCCN2CC[C@H](O)C2)C1 [Example 382, (3S)-1-{3-[3-(4-Chloro-3-{[4-({[(4-chlorophenyl)methyl]amino}methyl)phenyl]ethynyl}phenyl)-5-(methylsulfonyl)-4,5,6,7-tetrahydro-1H-pyrazolo[4,3-c]pyridin-1-yl]propyl}pyrrolidin-3-ol] | 110 nM | –
6 | CS(=O)(=O)N1CCc2c(c(-c3ccc(Cl)c(C#Cc4ccc(CNCc5ccc(Cl)cc5)cc4)c3)nn2CCCN2CC[C@@H](O)C2)C1 [Example 383, (3R)-1-{3-[3-(4-Chloro-3-{[4-({[(4-chlorophenyl)methyl]amino}methyl)phenyl]ethynyl}phenyl)-5-(methylsulfonyl)-4,5,6,7-tetrahydro-1H-pyrazolo[4,3-c]pyridin-1-yl]propyl}pyrrolidin-3-ol] | 120 nM | –
7 | CC(C)(C)OC(=O)NCc1ccccc1C#Cc1cc(-c2nn(CCCN3CCOCC3)c3c2CN(S(C)(=O)=O)CC3)ccc1Cl [Example 384, 1,1-Dimethylethyl {[2-({2-chloro-5-[5-(methylsulfonyl)-1-(3-morpholin-4-ylpropyl)-4,5,6,7-tetrahydro-1H-pyrazolo[4,3-c]pyridin-3-yl]phenyl}ethynyl)phenyl]methyl}carbamate] | – | 2790 nM
8 | CS(=O)(=O)N1CCc2c(c(-c3ccc(Cl)c(C#Cc4ccccc4CN)c3)nn2CCCN2CCOCC2)C1 [Example 385, 1-[2-({2-Chloro-5-[5-(methylsulfonyl)-1-(3-morpholin-4-ylpropyl)-4,5,6,7-tetrahydro-1H-pyrazolo[4,3-c]pyridin-3-yl]phenyl}ethynyl)phenyl]methanamine] | 2720 nM | –
9 | CS(=O)(=O)N1CCc2c(c(-c3ccc(Cl)c(C#Cc4ccccc4CNCc4ccccc4)c3)nn2CCCN2CCOCC2)C1 [Example 386, 1-[2-({2-Chloro-5-[5-(methylsulfonyl)-1-(3-morpholin-4-ylpropyl)-4,5,6,7-tetrahydro-1H-pyrazolo[4,3-c]pyridin-3-yl]phenyl}ethynyl)phenyl]-N-(phenylmethyl)methanamine] | 770 nM | –
10 | CS(=O)(=O)N1CCc2c(c(-c3ccc(Cl)c(C#Cc4ccc(CNCc5ccc(Cl)cc5)cc4)c3)nn2CCCN2CCN(C3CC3)CC2)C1 [Example 388, 1-{4-[(2-Chloro-5-{1-[3-(4-cyclopropylpiperazin-1-yl)propyl]-5-(methylsulfonyl)-4,5,6,7-tetrahydro-1H-pyrazolo[4,3-c]pyridin-3-yl}phenyl)ethynyl]phenyl}-N-[(4-chlorophenyl)methyl]methanamine] | 60 nM | –
11 | CS(=O)(=O)N1CCc2c(c(-c3ccc(Cl)c(C#Cc4ccc(CNCc5ccc(Cl)cc5)cc4)c3)nn2CCCN2CCOC(CO)C2)C1 (centres unmarked) [Example 389] | – | 230 nM
12 | CC(C)(C)OC(=O)N1CCCN(CCCn2nc(-c3ccc(Cl)c(C#Cc4ccc(CNCc5ccc(Cl)cc5)cc4)c3)c3c2CCN(S(C)(=O)=O)C3)CC1 [Example 390, 1,1-Dimethylethyl 4-{3-[3-(4-chloro-3-{[4-({[(4-chlorophenyl)methyl]amino}methyl)phenyl]ethynyl}phenyl)-5-(methylsulfonyl)-4,5,6,7-tetrahydro-1H-pyrazolo[4,3-c]pyridin-1-yl]propyl}-1,4-diazepane-1-carboxylate] | 150 nM | –
13 | CS(=O)(=O)N1CCc2c(c(-c3ccc(Cl)c(C#Cc4ccc(CNCc5ccc(Cl)cc5)cc4)c3)nn2CCCN2CCCNCC2)C1 [Example 391, 1-{4-[(2-Chloro-5-{1-[3-(1,4-diazepan-1-yl)propyl]-5-(methylsulfonyl)-4,5,6,7-tetrahydro-1H-pyrazolo[4,3-c]pyridin-3-yl}phenyl)ethynyl]phenyl}-N-[(4-chlorophenyl)methyl]methanamine] | 260 nM | –
14 | CC(C)(C)OC(=O)N1Cc2ccc(C#Cc3cc(-c4nn(CCCN5CCOCC5)c5c4CN(S(C)(=O)=O)CC5)ccc3Cl)cc2C1 [Example 392, 1,1-Dimethylethyl 5-({2-chloro-5-[5-(methylsulfonyl)-1-(3-morpholin-4-ylpropyl)-4,5,6,7-tetrahydro-1H-pyrazolo[4,3-c]pyridin-3-yl]phenyl}ethynyl)-1,3-dihydro-2H-isoindole-2-carboxylate] | 180 nM | –
15 | CS(=O)(=O)N1CCc2c(c(-c3ccc(Cl)c(C#Cc4ccc5c(c4)CNC5)c3)nn2CCCN2CCOCC2)C1 [Example 393, 3-[4-Chloro-3-(2,3-dihydro-1H-isoindol-5-ylethynyl)phenyl]-5-(methylsulfonyl)-1-(3-morpholin-4-ylpropyl)-4,5,6,7-tetrahydro-1H-pyrazolo[4,3-c]pyridine] | 220 nM | –
16 | CS(=O)(=O)N1CCc2c(c(-c3ccc(Cl)c(C#Cc4cnc5c(c4)CNCC5)c3)nn2CCCN2CCOCC2)C1 [Example 394, 3-({2-Chloro-5-[5-(methylsulfonyl)-1-(3-morpholin-4-ylpropyl)-4,5,6,7-tetrahydro-1H-pyrazolo[4,3-c]pyridin-3-yl]phenyl}ethynyl)-5,6,7,8-tetrahydro-1,6-naphthyridine] | – | 3810 nM
17 | CS(=O)(=O)N1CCc2c(c(-c3ccc(Cl)c(CCc4ccc(CNCc5ccc(Cl)cc5)cc4)c3)nn2CCCN2CCN(c3ccccc3)CC2)C1 [Example 395, 1-{4-[2-(2-Chloro-5-{5-(methylsulfonyl)-1-[3-(4-phenylpiperazin-1-yl)propyl]-4,5,6,7-tetrahydro-1H-pyrazolo[4,3-c]pyridin-3-yl}phenyl)ethyl]phenyl}-N-[(4-chlorophenyl)methyl]methanamine] | – | 20 nM
18 | CS(=O)(=O)N1CCc2c(c(-c3ccc(Cl)c(C#Cc4ccc5c(c4)CN(C4CC4)CC5)c3)nn2CCCN2CCOCC2)C1 [Example 396, 7-({2-Chloro-5-[5-(methylsulfonyl)-1-(3-morpholin-4-ylpropyl)-4,5,6,7-tetrahydro-1H-pyrazolo[4,3-c]pyridin-3-yl]phenyl}ethynyl)-2-cyclopropyl-1,2,3,4-tetrahydroisoquinoline] | – | 230 nM
19 | CS(=O)(=O)N1CCc2c(c(-c3ccc(Cl)c(C#Cc4ccc(CNCc5ccc(Cl)cc5)cc4)c3)nn2CCCN2CCNC(=O)C2)C1 [Example 397, 4-{3-[3-(4-Chloro-3-{[4-({[(4-chlorophenyl)methyl]amino}methyl)phenyl]ethynyl}phenyl)-5-(methylsulfonyl)-4,5,6,7-tetrahydro-1H-pyrazolo[4,3-c]pyridin-1-yl]propyl}piperazin-2-one] | 510 nM | –
20 | CS(=O)(=O)N1CCc2c(c(-c3ccc(Cl)c(C#Cc4ccc(CNCc5ccc(Cl)cc5)cc4)c3)nn2CCCN2CCS(=O)(=O)CC2)C1 [Example 398, 1-{4-[(2-Chloro-5-{1-[3-(1,1-dioxidothiomorpholin-4-yl)propyl]-5-(methylsulfonyl)-4,5,6,7-tetrahydro-1H-pyrazolo[4,3-c]pyridin-3-yl}phenyl)ethynyl]phenyl}-N-[(4-chlorophenyl)methyl]methanamine] | 380 nM | –
21 | CS(=O)(=O)N1CCc2c(c(-c3ccc(Cl)c(C#Cc4ccc(CNCc5ccc(Cl)cc5)cc4)c3)nn2CCCN2CCCOCC2)C1 [Example 399, 1-{4-[(2-Chloro-5-{5-(methylsulfonyl)-1-[3-(1,4-oxazepan-4-yl)propyl]-4,5,6,7-tetrahydro-1H-pyrazolo[4,3-c]pyridin-3-yl}phenyl)ethynyl]phenyl}-N-[(4-chlorophenyl)methyl]methanamine] | 110 nM | –
22 | CC(=O)N1CCc2c(c(-c3ccc(Cl)c(C#Cc4ccc(CNCc5ccc(Cl)cc5)cc4)c3)nn2CCCN2CCOC[C@@H]2C)C1 [Example 400, 1-(4-{[5-(5-Acetyl-1-{3-[(3S)-3-methylmorpholin-4-yl]propyl}-4,5,6,7-tetrahydro-1H-pyrazolo[4,3-c]pyridin-3-yl)-2-chlorophenyl]ethynyl}phenyl)-N-[(4-chlorophenyl)methyl]methanamine] | – | 190 nM
23 | C[C@H]1COCCN1CCCn1nc(-c2ccc(Cl)c(C#Cc3ccc(CNCc4ccc(Cl)cc4)cc3)c2)c2c1CCN(C(N)=O)C2 [Example 401, 3-(4-Chloro-3-{[4-({[(4-chlorophenyl)methyl]amino}methyl)phenyl]ethynyl}phenyl)-1-{3-[(3S)-3-methylmorpholin-4-yl]propyl}-1,4,6,7-tetrahydro-5H-pyrazolo[4,3-c]pyridine-5-carboxamide] | 110 nM | –
